Assay results as given in PubChem BioAssay (NCI).
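Where inhibition never reached the appropriate level, the endpoint shown equals the highest concentration tested. Otherwise, values were interpolated linearly from a five-concentration, 48-hour dose response in 96-well plates. TGI: concentration producing complete growth inhibition.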

Columns and labels:
Assay in all cases: NCI tumour cell line growth inhibition, 48 h
[1] = tested on: NCI-H226 lung
[2] = tested on: ACHN renal
[3] = tested on: HCT-15 colon
[4] = tested on: NCI-H522 lung
[5] = tested on: HCT-116 colon
[6] = tested on: HL-60(TB) leukemia
[7] = tested on: SK-MEL-2 melanoma
[8] = tested on: A498 renal
[9] = tested on: HT29 colon
[10] = tested on: KM12 colon
[11] = tested on: SR leukemia
[12] = tested on: HS 578T breast
[13] = tested on: T-47D breast
[14] = tested on: MDA-N
[15] = tested on: MOLT-4 leukemia
[16] = tested on: OVCAR-4 ovarian
[17] = tested on: HOP-62 NSCLC
[18] = tested on: EKVX NSCLC
[19] = tested on: HOP-92 NSCLC
[20] = tested on: IGROV1 ovarian

| Compound | TGI [1] [µM] | TGI [2] [µM] | TGI [3] [µM] | TGI [4] [µM] | TGI [5] [µM] | TGI [6] [µM] | TGI [7] [µM] | TGI [8] [µM] | TGI [9] [µM] | TGI [10] [µM] | TGI [11] [µM] | TGI [12] [µM] | TGI [13] [µM] | TGI [14] [µM] | TGI [15] [µM] | TGI [16] [µM] | TGI [17] [µM] | TGI [18] [µM] | TGI [19] [µM] | TGI [20] [µM] |
| --- | --- | --- | --- | --- | --- | --- | --- | --- | --- | --- | --- | --- | --- | --- | --- | --- | --- | --- | --- | --- |
| O=[N+]([O-])C1=Cc2c(O)ccc(O)c2C2c3ccccc3NC12 (stereo unspecified) | > 100 | 16 | 36.4 | 5.48 | 22.7 | > 21 | 40.1 | 29.8 | 26.4 | 24.4 | > 64.3 | > 57 | > 55.8 | 39.3 | > 44.5 | 30.1 | 25 | 28.6 | 20.7 | 32.7 |
| FC(F)(F)c1ccc2c(c1)nc(Cc1ccc(Cl)cc1)n2CC1CCCN2CCCCC12 (stereo unspecified) | 24.2 | 23.6 | 20.9 | 16.9 | 19.9 | 6.13 | 26.4 | 27.1 | 11.6 | 21.4 | 7.13 | 6.9 | 19.6 | 13.7 | 10.4 | 36.1 | 27.7 | 23.2 | 20.4 | 22 |
| COc1cc(Nc2nc(NS(=O)(=O)c3cc(C)c(Cl)cc3S)n[nH]2)cc(OC)c1OC | > 100 | > 100 | > 100 | > 100 | > 100 | > 100 | > 100 | > 100 | > 100 | > 100 | > 100 | > 100 | > 100 | > 100 | > 100 | > 100 | > 100 | > 100 | > 100 | > 100 |
| CCc1c(N=[N+]=[N-])c2ccccc2oc1=O | > 100 | > 100 | > 100 | > 100 | > 100 | > 100 |  | > 100 | > 100 | > 100 | > 100 | > 100 | > 100 | > 100 | > 100 | > 100 | > 100 | > 100 | > 100 | > 100 |
| O=[N+]([O-])c1cccc(-c2ccc([C@H]3CC(c4ccc(Cl)cc4)=NN3)o2)c1 | 45.8 | 34.4 | 40.3 | 59.1 | 31.2 | 24.1 |  | 88.2 | 56.9 |  | 32.7 | > 100 | 41.7 | 66.7 | 29.1 | 68.6 | 57.9 | > 100 | 67.6 | > 100 |
| O=C1C(CN2CCCC2)CCC1CN1CCCC1 (stereo unspecified) | > 74.4 | 29.3 | 31.8 | 3.52 | 32.6 | > 100 | 47.1 | > 100 | 40.7 | > 100 | > 100 | 55.7 | 37.8 | 29.9 | 39.9 | 48.7 | > 100 | > 82.7 | 30.1 | > 82.3 |
| COc1ccc2nc3cc(Cl)ccc3c(NCCCN(C)CCCNc3ccc4ncn5c6ccccc6c(=O)c3c45)c2c1 | 1.98 | 3.93 | > 9.4 | 1.73 | 4.86 | 2.2 | 7.23 | 6.52 | 0.69 | 4.99 | > 7.84 | > 19.5 | > 17.3 | 4.77 | > 5.72 | 3.95 | 6.1 | 7.15 | > 16.9 | 4.37 |
| CSc1ccc(/C=C2\N=C(c3ccccc3)N(NC(=O)c3c(Cl)c(Cl)c(Cl)c(Cl)c3-c3nc4ccccc4[nH]3)C2=O)cc1 | > 100 | > 100 | > 100 | > 100 | 83.3 | 61 | > 100 | 80.3 | > 100 | 65.6 | > 100 | > 100 | 25.6 | > 100 | 77.3 |  | > 100 | > 100 | 52.2 | > 100 |
| O=C1C/C(=C\c2ccccc2)C(=O)c2ccccc2N1 | 80.4 | 58.4 | 44.7 | 51.9 | 29.3 | 49.2 | 60.6 | 35.4 | 36.5 | 39.5 | 99.5 | > 100 | 78.1 | 47.8 | > 100 | 49.1 | 56.6 | 48.5 | 60.7 | 38 |
| Cc1c(CNc2ccc(Cl)c(Cl)c2Cl)cnc2nc(N)nc(N)c12 | > 100 | > 48.8 | > 100 | > 45.2 | 1.55 | 15.3 | > 90 | > 100 | > 53.9 | > 100 | > 57.9 | 65.6 | 24.9 | > 32 | 17.6 | 31.1 | > 43.5 | > 69 | > 62.8 | > 49.3 |
| Cc1nnc(NS(=O)(=O)c2ccc(N=Nc3c(O)c(C(=O)O)cc4ccccc34)cc2)s1 | > 100 | > 100 | > 100 | > 100 | > 100 | > 100 | > 100 |  | > 100 | > 100 | > 100 | > 100 | > 100 | > 100 | > 100 | > 100 | > 100 | > 100 | > 100 | > 100 |
| COc1ccc(Cc2nc3cc(C(F)(F)F)ccc3n2C[C@@H]2CCCN3CCCCC23)cc1 (stereo partly specified) | 37 | 22.5 | 30.8 | 21.8 | 20.4 | 19.5 | 30.1 | 14.1 | 15.4 | 27.4 | > 100 | 65.9 | 22.9 | 13.2 | 31.7 | 25.1 | 23.2 | 27.7 | 20.7 | 15.7 |
| COc1ccc(CCN2C(=O)C(=O)C(C(=O)c3ccccc3)C2c2ccccc2)cc1OC (stereo unspecified) |  | > 100 | > 100 | > 100 | > 100 | > 100 | > 100 | > 100 | > 100 | > 100 | > 100 | > 100 | > 100 | > 100 | > 100 |  | > 100 | > 100 | > 100 | > 100 |
| COC(=O)c1nc2n(n1)-c1ccccc1C(=O)N(Cc1ccccc1)C2 | > 100 | > 100 | > 100 | > 100 | > 100 | > 100 | > 100 | > 100 | > 100 | > 100 | > 100 | > 100 | > 100 | > 100 | > 100 | > 100 | > 100 | > 100 | > 100 | > 100 |
| COc1cc(CCNC2=CC(=O)c3ncccc3C2=O)ccc1O | 6.62 | 29 | > 34.6 | 10.3 | > 34.4 | > 26.9 | 9.79 | 32.4 | 28.4 | 24.9 | 38.7 | 15.6 | > 63.6 | 2.72 | 22.8 | 12.1 | 9.5 | 37.9 | 42.7 | 10.1 |
| NS(=O)(=O)c1ccc(NNc2c3ccccc3nc3c(C(=O)Nc4ccc(S(N)(=O)=O)cc4)cccc23)cc1 | > 100 | > 100 | > 100 | 50.8 | > 100 | 68.9 | 54.4 | > 100 | 72.4 | > 100 | 57.9 | > 100 | > 100 | > 100 | 49.6 | 75.1 | > 100 | > 100 | 73.4 | > 100 |
| NC(C(=O)O)C(O)c1cnc[nH]1 (stereo unspecified) | > 100 | > 100 | > 100 | > 100 | > 100 | > 100 | > 100 | > 100 | > 100 | > 100 | > 100 | > 100 | > 100 | > 100 | > 100 | > 100 | > 100 | > 100 | > 100 | > 100 |
| COc1cc(OC)cc(Oc2nc3ccc(C(F)(F)F)cc3nc2-c2ccccc2)c1 | > 100 | > 100 | > 100 | > 100 | > 100 | > 100 |  | > 100 | > 100 | > 100 | > 100 | > 100 | > 100 | > 100 | > 100 | > 100 | > 100 | > 100 | > 100 | > 100 |
| CC(=O)OCC1OC(NC(=S)Nn2c(-c3ccccc3)nc3ccccc3c2=O)C(OC(C)=O)C(OC(C)=O)C1OC(C)=O (stereo unspecified) | > 100 | > 100 | > 100 | > 100 | > 100 | > 100 | 68.3 | > 100 | > 100 | > 100 | 88.7 | > 100 | 60.2 | > 100 | > 100 |  | > 100 | > 100 | > 100 | > 100 |
| O=[N+]([O-])c1ccc(-c2ccc([C@H]3CC(c4cc(F)c(Cl)cc4Cl)=NN3)o2)cc1 | 58.9 | > 100 | > 100 | > 100 | > 100 | 16.2 |  | > 100 | > 100 | > 100 | 77.1 | > 100 | 61.8 | > 100 | 41 | > 100 | > 100 | > 100 | > 100 | > 100 |
| C(#C[C@@]12CCC[C@@H]1NCO2)c1ccc2c(c1)OCO2 | > 100 | > 100 | > 100 | > 100 |  | 68.2 | > 100 | > 100 | > 100 | > 100 | > 100 | > 100 | > 100 | > 100 | 67.7 | > 100 | > 100 | > 100 | > 100 | > 100 |
| CCOP(=O)(OCC)/C(F)=C/c1ccc(F)cc1 |  | > 100 | > 100 | > 100 | > 100 | > 100 | > 100 | > 100 | > 100 | > 100 | > 100 | > 100 | > 100 | > 100 | > 100 | > 100 | > 100 | > 100 | > 100 | > 100 |
| N#Cc1nc(CCC(C(=O)O)N2C(=O)c3ccccc3C2=O)oc1N (stereo unspecified) | > 100 | > 100 | > 100 | > 100 |  | > 100 | > 100 | > 100 | > 100 | > 100 | > 100 | > 100 | > 100 | > 100 | > 100 | > 100 | > 100 | > 100 | > 100 | > 100 |
| C=C1C(=O)O[C@H]2[C@@H]3O[C@@](C)(CC/C=C(\C)CCC[C@@H]2C)[C@H](O)C[C@@H]13 | 5.89 | 6.25 | 24.4 | 5.67 | > 100 | 53 | 27 | > 100 | 3.94 | 26.2 | > 100 | 25.9 | 16.8 | 10.1 |  | 34.8 | 23.1 | > 100 | > 100 | 35.6 |
